Data on 26 compounds can be found in ChEMBL document CHEMBL5620364, “Structure-affinity relationships of stereoisomers of norbenzomorphan-derived σ2R/TMEM97 modulators” (Eur J Med Chem, 2023).

Assay [1] concerns the target T1, Sigma intracellular receptor 2 (Rattus norvegicus, UniProt Q5U3Y7).
T1 sequence (Q5U3Y7 whole entry): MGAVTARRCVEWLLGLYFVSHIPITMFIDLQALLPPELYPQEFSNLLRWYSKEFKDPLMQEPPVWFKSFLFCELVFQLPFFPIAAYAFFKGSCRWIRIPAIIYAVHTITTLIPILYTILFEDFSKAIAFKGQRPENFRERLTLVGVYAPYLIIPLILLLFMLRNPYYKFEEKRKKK
The experiment in a line: biochemical.
Description: Binding affinity to sigma 2 receptor in rat PC12 cells assessed as inhibition constant

In assay [2] the target is T2, Sigma non-opioid intracellular receptor 1 (Homo sapiens, UniProt Q99720). The experiment in a line: Displacement of [3H](+)-pentazocine from sigma 1 receptor in HEK293 cells assessed as inhibition constant by radioligand competition binding assay. In kind it is cell-based.
T2 sequence (Q99720 whole entry): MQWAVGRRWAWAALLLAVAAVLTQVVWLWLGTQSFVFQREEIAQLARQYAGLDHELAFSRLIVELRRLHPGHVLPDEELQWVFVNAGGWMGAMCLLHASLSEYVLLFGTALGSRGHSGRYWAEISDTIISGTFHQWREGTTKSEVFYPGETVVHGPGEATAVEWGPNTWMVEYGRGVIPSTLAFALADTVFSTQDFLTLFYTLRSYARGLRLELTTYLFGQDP
The target of assay [3] is T3, Sigma intracellular receptor 2 (Homo sapiens, UniProt Q5BJF2). The experiment in a line: Displacement of [3H](+)-ditolylguanidine from human sigma 2 receptor transfected in human HEK293T cells assessed as inhibition constant in presence of (+)-pentazocine by radioligand competition binding assay. In kind it is cell-based, HEK293.
T3 sequence (Q5BJF2 whole entry): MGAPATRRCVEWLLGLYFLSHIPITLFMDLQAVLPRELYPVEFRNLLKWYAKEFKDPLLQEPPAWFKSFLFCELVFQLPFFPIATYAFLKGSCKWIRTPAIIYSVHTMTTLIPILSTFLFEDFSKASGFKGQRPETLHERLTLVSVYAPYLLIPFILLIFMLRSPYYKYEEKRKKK
For assay [4], the target named is T3, Sigma intracellular receptor 2. The experiment in a line: Binding affinity to sigma 2 receptor (unknown origin) assessed as inhibition constant.
For assay [5], the target named is T2, Sigma non-opioid intracellular receptor 1. Kind of assay: Binding affinity to sigma 1 receptor (unknown origin) assessed as inhibition constant.

Regarding `Clc1ccc2c(c1)C1CC2CCCN1CCc1ccccc1` (configuration not stated), the inhibition constant (Ki) in assay [1] turned out to be 248 nM.

On to `O=C(OCc1ccccc1)N1CC[C@H]2C[C@@H]1c1cc(N3CCN(C4CCC4)CC3)ccc12`, for which the figures for the Ki in assay [2] and in assay [3] were 50.7 nM and 34.3 nM, respectively.

As for `O=C(OCc1ccccc1)N1CC[C@@H]2C[C@H]1c1cc(N3CCCN(CCCF)CC3)ccc12`, the Ki in assay [2] came to 11.7 nM; in assay [3] it was 22.2 nM.

As for `CN1CC(CN2CCN(c3ccc4c(c3)[C@@H]3C[C@H]4CCN3C(=O)OCc3ccccc3)CC2)C1`, the inhibitory constant (Ki) in assay [2] was 94.1 nM; in assay [4] it was 24.4 nM.

Turning to `O=C(OCc1ccccc1)N1CC[C@H]2C[C@@H]1c1cc(N3CCN(CCCF)CC3)ccc12`, the Ki amounted to 81.7 nM in assay [2] and 24.3 nM in assay [3].

For `COCCCN1CCN(c2ccc3c(c2)[C@@H]2C[C@H]3CCN2C(=O)OCc2ccccc2)CC1`, the Ki in assay [5] was 59.2 nM; in assay [4], 8 nM.

As for `O=C(OCc1ccc(C(F)(F)F)cc1)N1CC[C@@H]2C[C@H]1c1cc(N3CCN(CCCF)CC3)ccc12`, the values for the Ki in assay [2] and in assay [3] were 67.9 nM and 20.9 nM, respectively.

As to `CCN(CC)C(=O)CCN1CCN(c2ccc3c(c2)[C@@H]2C[C@H]3CCN2C(=O)OCc2ccccc2)CC1`, the Ki was found to be 197 nM in assay [5] and 12.4 nM in assay [4].

For `O=C(OCc1ccccc1)N1CC[C@@H]2C[C@H]1c1cc(N3CCN(C4CCC4)CC3)ccc12`, the values for the inhibition constant (Ki) in assay [2] and in assay [3] were 32.9 nM and 12.4 nM, respectively.

`COCCN1CCN(c2ccc3c(c2)[C@H]2C[C@@H]3CCN2C(=O)OCc2ccccc2)CC1`: the Ki in assay [2] turned out to be 312 nM; in assay [3] it was 129 nM.

For the compound `O=C(/C=C/c1ccccc1)N1CC[C@@H]2C[C@H]1c1cc(N3CCN(CCCF)CC3)ccc12`, the inhibition constant (Ki) in assay [2] was found to be 185 nM; in assay [4], 53.3 nM.

Take `CN1CC(C(=O)N2CCN(c3ccc4c(c3)[C@@H]3C[C@H]4CCN3C(=O)OCc3ccccc3)CC2)C1`: the results for the inhibition constant Ki in assay [5] and in assay [4] were 53.1 nM and 35.2 nM, respectively.

`O=C(OCc1ccccc1)N1CC[C@@H]2C[C@H]1c1cc(N3CCN(CCO)CC3)ccc12`: the Ki in assay [2] was 510 nM; in assay [3], 75.3 nM.

With `CNCCC(=O)N1CCN(c2ccc3c(c2)[C@@H]2C[C@H]3CCN2C(=O)OCc2ccccc2)CC1`, the figures for the inhibition constant (Ki) in assay [5] and in assay [4] were 189 nM and 110 nM, respectively.

With `COCCN1CCN(c2ccc3c(c2)[C@@H]2C[C@H]3CCN2C(=O)OCc2ccccc2)CC1`, the Ki worked out at 193 nM in assay [2] and 47 nM in assay [3].

`O=C(OCc1cccc(F)c1)N1CC[C@@H]2C[C@H]1c1cc(N3CCN(CCCF)CC3)ccc12`: the Ki in assay [2] is 17.2 nM; in assay [3] it was 21.2 nM.

Regarding `CN(C)CCN1CCN(c2ccc3c(c2)[C@@H]2C[C@H]3CCN2C(=O)OCc2ccccc2)CC1`, the inhibitory constant (Ki) in assay [5] came to 83.4 nM; in assay [4], 52 nM.

Consider `CN(C)C1CCN(c2ccc3c(c2)[C@@H]2C[C@H]3CCN2C(=O)OCc2ccccc2)CC1`, for which the Ki in assay [2] was found to be 140 nM; in assay [4], 31.5 nM.

In the case of `O=C(OCc1ccccc1)N1CC[C@H]2C[C@@H]1c1cc(N3CCN(CCO)CC3)ccc12`, the values for the inhibitory constant (Ki) in assay [2] and in assay [3] were 1740 nM and 201 nM, respectively.

Turning to `CNCCN1CCN(c2ccc3c(c2)[C@@H]2C[C@H]3CCN2C(=O)OCc2ccccc2)CC1`, the figures for the Ki in assay [5] and in assay [4] were 173 nM and 60.9 nM, respectively.

On to `O=C(OCc1ccc(Cl)cc1)N1CC[C@@H]2C[C@H]1c1cc(N3CCN(CCCF)CC3)ccc12`, for which the inhibition constant (Ki) in assay [2] came out at 94.9 nM; in assay [3], 27.1 nM.

Consider `CCCCN1C[C@@H]2CN(c3ccc4c(c3)[C@@H]3C[C@H]4CCN3C(=O)OCc3ccccc3)C[C@@H]2C1`, for which the Ki in assay [2] amounted to 50.2 nM; in assay [3], 28.4 nM.

In the case of `O=C(CCc1ccccc1)N1CC[C@@H]2C[C@H]1c1cc(N3CCN(CCCF)CC3)ccc12`, the values for the Ki in assay [2] and in assay [4] were 57.6 nM and 397 nM, respectively.

`O=C(OCc1ccccc1)N1CC[C@@H]2C[C@H]1c1cc(N3CC4CCC(C3)N4CCCF)ccc12`: the results for the inhibition constant Ki in assay [2] and in assay [3] were 70.4 nM and 17.7 nM, respectively.

For the compound `CN(C)CCCOC1CN(c2ccc3c(c2)[C@@H]2C[C@H]3CCN2C(=O)OCc2ccccc2)C1`, the inhibition constant Ki in assay [2] was found to be 118 nM; in assay [3] it was 57.8 nM.

Take `O=C(OCc1ccccc1)N1CC[C@@H]2C[C@H]1c1cc(N3CCN(CCCF)CC3)ccc12`: the inhibition constant (Ki) in assay [2] is 37.7 nM; in assay [3], 9.2 nM; in assay [4], 9.2 nM.
